Data published in patent US20250135071A1, “USE OF POLYPEPTIDE IN PROMOTION OF CARTILAGE REGENERATION OR REPAIR” (HANGZHOU HUIBO SCIENCE AND TECHNOLOGY CO., LTD, priority 2021, published 2025).

Columns and labels:
collagen fibers = test: Masson trichrome staining, collagen fiber area in defect region; type: in vivo, New Zealand white rabbits; conditions: 2 and 4 weeks; group 3 versus groups 2 and 1; P<0.05
Description: (§1) Histological examination steps were as follows: in an environment of 4° C., the specimens used for histological analysis were fixed in 10% neutral formalin (Sig-ma-Aldrich, USA) for 24 hours, and decalcified with a 10% ethylenediaminetetraacetic acid (EDTA) buffer solution (Sigma-Aldrich, USA) for 28 days. The sample was embedded in paraffin wax (Sigma-Aldrich, USA), cut into 4 μm thick sagittal sections, and subjected to staining with hemotoxylin and cosin, Masson trichrome and Alcian Blue (Sigma Aldrich, USA). The sections were detected immunohistochemically for the contents of the type II collagen and Aggrecan. […] These sections were scored blindly by 3 experienced pathologists with an improved O'Driscoll scoring system (MODS).
(§2) The steps of histological morphology analysis were as follows: in all the sample sections, the original defect region was a 3*3 mm square. […] The percentages of areas of the new subchondral bone, the cartilage, the collagen fiber and the glycosaminoglycan (GAG) in the total area of the defect region was detected with image analysis software (image pro plus 6.0). Their respective contents were expressed as integrated optical density (IOD) of the type II collagen and Aggrecan measured by Image pro plus 6.0. […]

[1] = tested on: rabbit temporomandibular joint condylar osteochondral defect (3 mm*3 mm); test: Macroscopic (ICRS) evaluation of repair of rabbit condylar osteochondral defect; type: in vivo, New Zealand white rabbits; conditions: overall conclusion, 1 to 4 weeks
Text: 54 adult male New Zealand white rabbits (Zhejiang Chinese Medical University, IACUC-20180625-04) were randomized into 3 groups, with 18 rabbits in each group. The 54 rabbits were operated at right condyle, while the left condyle remained intact.
They were divided into 3 groups, of which group 1 was a control group without any treatment in the defect region; group 2 was a Gel-MA group implanted with Gel-MA hydrogel in the defect region; and group 3 was a Hst1/Gel-MA group implanted with HST1 functionalized Gel-MA in the defect region (provided in Example 1). […]
(§3) At 1, 2 and 4 weeks after operation, 6 animals in each group were randomly selected for euthanasia. The right temporomandibular joint and surrounding tissues thereof were taken out, and the gross specimens were evaluated by macroscopic scoring, and statistically analyzed.
The macroscopic scoring evaluation of the gross specimens adopted a macroscopic scoring system of the International Cartilage Repair Society (ICRS), and the gross appearance of the defect site was photographed and subjected to blind evaluation by 3 independent graders. The scoring system evaluated the cartilage repair in the defect region from four aspects: the degree of repair, the integration of a boundary area, a macroscopic appearance and the overall repair evaluation. […]

[2] = tested on: defect region of a critical size in rabbit condyle; test: Effect of Hst1 dose in Gel-MA on cartilage repair (H&E histology); type: in vivo; conditions: 2 weeks
Text: In order to determine the optimal concentration of Hst1 for promoting osteochondral repair, Gel-M and 3 different doses of Hst1 at (A, A1) 50, (B, B1) 500, and (C, C1) 1,000 (μg)/sample were implanted in the defect region of a critical size in rabbit condyle, and the tissues were taken out at 2 weeks after operation, subjected to histological treatment and sectioned to explore the cartilage repair effects of the 3 different concentrations of Hst1.
The 3 different concentrations of Hst1 were set as follows: group A: 50 μg of Hst1+21.1 μl of a Gel-MA prepolymer solution; group B: 500 μg of Hst1+21.1 μl of a Gel-MA prepolymer solution; and group C: 1,000 μg of Hst1+21.1 μl of a Gel-MA prepolymer solution (the model volume of condylar defect was 21.1 μl/sample).
The optical photomicrographs of H&E stained tissue sections of rabbit condyle for comparison were shown in FIG. 8, wherein the dotted square area was the original defect region (3 mm*3 mm), the A-C scale was 500 μm; and the A1-C1 scale=50 μm. […] Therefore, 500 μg of Hst1/sample (500 μg of Hst1+21.1 μl of Gel-MA) was selected as the preferred concentration.

type II collagen = test: Immunohistochemistry of type II collagen in repaired tissue; type: in vivo, New Zealand white rabbits
Description: as §1, §2

Aggrecan = test: Immunohistochemistry of Aggrecan in repaired tissue; type: in vivo, New Zealand white rabbits
Description: as §1, §2

[3] = tested on: rabbit temporomandibular joint condylar osteochondral defect (3 mm*3 mm); test: Histological evaluation (H&E, histomorphometry, MODS score) of repaired osteochondral defect; type: in vivo, New Zealand white rabbits; conditions: group 3
Description: as §3, with “In this example, 3 groups of rabbits provided in Example 2 were used, and at” for “At”, “analyzed for tissue morphology” for “evaluated by macroscopic scoring,”
Histological examination steps were as follows: in an environment of 4° C., the specimens used for histological analysis were fixed in 10% neutral formalin (Sig-ma-Aldrich, USA) for 24 hours, and decalcified with a 10% ethylenediaminetetraacetic acid (EDTA) buffer solution (Sigma-Aldrich, USA) for 28 days. The sample was embedded in paraffin wax (Sigma-Aldrich, USA), cut into 4 μm thick sagittal sections, and subjected to staining with hemotoxylin and cosin, Masson trichrome and Alcian Blue (Sigma Aldrich, USA). The sections were detected immunohistochemically for the contents of the type II collagen and Aggrecan. All the sections were observed and photographed by utilizing an optical microscope (CX51; Olympus) and a digital charge coupled device camera (TrueChrome Metrics; Tucsen Photonics). These sections were scored blindly by 3 experienced pathologists with an improved O'Driscoll scoring system (MODS).
The steps of histological morphology analysis were as follows: in all the sample sections, the original defect region was a 3*3 mm square. The top of the square was flush with the cartilage surfaces on both sides. The percentages of areas of the new subchondral bone, the cartilage, the collagen fiber and the glycosaminoglycan (GAG) in the total area of the defect region was detected with image analysis software (image pro plus 6.0). Their respective contents were expressed as integrated optical density (IOD) of the type II collagen and Aggrecan measured by Image pro plus 6.0.
At 4 weeks after operation, the tissues were retrieved for histological treatment and sectioning. According to the implants in the defect region, they were divided into a group 1 as the control group (A in FIG. 3, A1-A2), a group 2 as the Gel-MA group (B in FIG. 3, B1-B2) and a group 3 as the Hst1/Gel-MA group (C in FIG. 3, C1-C2). The dotted square area in FIG. 3 was the original defect region (3 mm*3 mm). A-C scale=500 μm. […]
The quantitative analysis of areas of new cartilage and subchondral bones and the MODS score results of repairing osteochondral defects at 1, 2 and 4 weeks after operation were shown in FIG. 4. In FIG. 4, A was the quantitative analysis of the area of the new cartilage, B was the quantitative analysis of the area of the subchondral bone, and C, D and E were the MODS score results of repairing osteochondral defects at 1, 2 and 4 weeks after operation, respectively. […]

glycosaminoglycan (GAG) = test: Alcian Blue staining, glycosaminoglycan (GAG) area in defect region; type: in vivo, New Zealand white rabbits; conditions: 2 and 4 weeks; group 3 versus groups 2 and 1; P<0.05
Description: as §1, §2

[4] = 4 weeks after operation, group 3
[5] = 4 weeks, group 3, quantitative analysis (IOD)

Histatin-1 polypeptide (DSHEKRHHGYRRKFHEKHHSHREFPFYGDYGSNYLYDN; linear Hst1)
area percentages of the collagen fibers in the new cartilage and the subchondral bone in the total area of the defect region (collagen fibers): significantly higher than those in the groups 2 and 1 | effect on promoting the repair of cartilage injury (macroscopic) [1]: very significant effect on promoting the repair of cartilage injury | histological repair of defect region ([2]; group A: 50 μg of Hst1+21.1 μl Gel-MA prepolymer solution): no new tissue was generated, and only a small amount of cell infiltration was detected | histological repair of defect region ([2]; group B: 500 μg of Hst1+21.1 μl Gel-MA prepolymer solution): several new cartilage islands could be obviously observed | histological repair of defect region ([2]; group C: 1,000 μg of Hst1+21.1 μl Gel-MA prepolymer solution): a large number of new subchondral bones were generated, but almost no new cartilage tissue was detected | expression of the type II collagen in the new cartilage tissue (type II collagen; [4]): close to those in the normal cartilage tissue | expression of the type II collagen compared with the groups 2 and 1 (type II collagen; [5]): more significant | expression of Aggrecan in the new cartilage tissue (Aggrecan; [4]): close to those in the normal cartilage tissue | expression of Aggrecan compared with the groups 2 and 1 (Aggrecan; [5]): more significant | histological observation of defect region ([3]; 1 week after operation): a new tissue was observed in the pores of the undegraded scaffold | histological observation of defect region ([3]; 2 weeks after operation): new cartilage and bone tissues gradually grew, infiltrated and replaced the scaffold | histological observation of defect region ([3]; 4 weeks after operation): the new cartilage proliferated and migrated to the center site of the defect | new blood vessels at junction between subchondral bone and functionalized hydrogel ([3]; 4 weeks after operation): formation of new blood vessels could be detected | area percentages of glycosaminoglycan (GAG) in the new cartilage and the subchondral bone in the total area of the defect region (glycosaminoglycan (GAG)): significantly higher than those in the groups 2 and 1
